# Test results as given in patent US20110045101A1, “FUNGICIDAL SUBSTITUTED AZOLES” (E.I. Du Pont De Nemours and Company, priority 2009, published 2011).
# Marks after values point to notes of the source that are not given here.
# Experiments:
# Type in all cases: in vivo
# Settings in all cases: 100 = 100% disease control
# Septoria tritici = assay: Test G: wheat leaf blotch on wheat seedlings, sprayed the day before inoculation, visual disease rating
# Procedure, shortened: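 Disease was rated visually after Septoria tritici inoculation, 48 h saturated incubation at 24°C and 19 days in a 20°C growth chamber. Inoculation followed one day after run-off spraying of seedlings with compound at 200 ppm (≈500 g/ha) or, where marked, 40 ppm, formulated in acetone/water with surfactant.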
# [1] = tested on: Puccinia recondita f. sp. tritici; assay: Test I: wheat leaf rust on wheat seedlings, sprayed the day before inoculation, visual disease rating
# Procedure, shortened: (§1)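 Ratings reflect a 200 ppm spray (≈500 g/ha) unless marked as 40 ppm. Plants were sprayed to run-off. The spray suspension was acetone/purified water 50/50 containing 250 ppm Trem 014, after first dissolving compound in acetone at 3% of final volume.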
# Alternaria solani = assay: Test D: tomato early blight, sprayed the day before inoculation, visual disease rating
# Procedure, shortened: as §1
# Septoria nodorum = assay: Test F: wheat glume blotch on wheat seedlings, sprayed the day before inoculation, visual disease rating
# Procedure, shortened: as §1
# [2] = tested on: Erysiphe graminis f. sp. tritici; assay: Test J: wheat powdery mildew on wheat seedlings, sprayed the day before inoculation, visual disease rating
# Procedure, shortened: as §1
# Botrytis cinerea = assay: Test C: tomato Botrytis on tomato seedlings, sprayed the day before inoculation, visual disease rating
# Procedure, shortened: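 Disease scored by eye on tomato seedlings inoculated with Botrytis cinerea a day after treatment. Treatment was a run-off spray at 200 ppm (equivalent to 500 g/ha), or 40 ppm where marked, in acetone/water carrying 250 ppm Trem 014.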
# [3] = 200 ppm, 0 = no control relative to controls
SMILES,Test G disease control rating (Septoria tritici; [3]),"Test I disease control rating [1, 3]",Test D disease control rating (Alternaria solani; [3]),Test F disease control rating (Septoria nodorum; [3]),"Test J disease control rating [2, 3]",Test C disease control rating (Botrytis cinerea; [3]),Test G disease control rating (Septoria tritici; 40 ppm (marked *)),Test I disease control rating ([1]; 40 ppm (marked *)),Test D disease control rating (Alternaria solani; 40 ppm (marked *)),Test F disease control rating (Septoria nodorum; 40 ppm (marked *)),Test J disease control rating ([2]; 40 ppm (marked *)),Test C disease control rating (Botrytis cinerea; 40 ppm (marked *))
Fc1cccc(F)c1-c1c(Cl)nc(Br)n1Cc1ccc(Cl)cc1 [compound 103],98%,100%,92%,90%,99%,79%,–,–,–,–,–,–
Cc1ccc(F)c(-c2c(Cl)nc(Br)n2-c2ccc(Cl)cc2)c1F [compound 105],94%,99%,99%,94%,100%,98%,–,–,–,–,–,–
COc1ccc(-c2c(Cl)ncn2-c2ccc(Cl)cc2)c(F)c1 [compound 106],93%,99%,99%,64%,95%,100%,–,–,–,–,–,–
Cc1ccc(F)c(-c2c(Cl)nc(C)n2-c2ccc(Cl)cc2)c1F [compound 107],96%,100%,100%,100%,100%,96%,–,–,–,–,–,–
CCc1nc(Cl)c(-c2c(F)cccc2F)n1-c1ccc(Cl)cc1 [compound 108],–,–,–,–,–,–,74* %,98* %,100* %,0* %,99* %,100* %
COc1ccc(-c2c(Cl)nc(Br)n2-c2ccc(Cl)cc2)c(F)c1 [compound 110],95%,97%,99%,100%,96%,94%,–,–,–,–,–,–
COc1ccc(F)c(-c2c(Cl)ncn2-c2ccc(Cl)cc2)c1F [compound 112],98%,99%,100%,89%,99%,99%,–,–,–,–,–,–
COc1ccc(-c2c(Cl)nc(C)n2-c2ccc(Cl)cc2)c(F)c1 [compound 113],95%,97%,99%,97%,97%,98%,–,–,–,–,–,–
COc1ccc(-c2c(Cl)nc(C)n2-c2ccc(Cl)cc2)c(F)c1C [compound 114],95%,41%,0%,0%,72%,93%,–,–,–,–,–,–
CC(C)c1nc(Cl)c(-c2c(F)cccc2F)n1-c1ccc(Cl)cc1 [compound 116],–,–,–,–,–,–,0* %,0* %,0* %,0* %,0* %,0* %
COc1ccc(F)c(-c2c(Cl)nc(Br)n2-c2ccc(Cl)cc2)c1F [compound 117],97%,99%,100%,99%,100%,96%,–,–,–,–,–,–
Cc1nc(Cl)c(-c2c(F)cccc2F)n1Cc1ccccc1 [compound 118],94%,99%,100%,60%,100%,99%,–,–,–,–,–,–
Cc1nc(Cl)c(-c2c(F)cc(O)cc2F)n1-c1ccc(Cl)cc1 [compound 119],91%,80%,80%,40%,0%,96%,–,–,–,–,–,–
Cc1nc(Cl)c(-c2c(F)cccc2F)n1Cc1ccc(Cl)c(F)c1 [compound 120],96%,90%,0%,0%,92%,98%,–,–,–,–,–,–
Fc1ccc(-n2cnc(Cl)c2-c2c(F)ccc(F)c2F)cc1 [compound 121],85%,89%,100%,0%,97%,99%,–,–,–,–,–,–
COc1ccc(F)c(-c2c(Cl)nc(C)n2-c2ccc(Cl)cc2)c1F [compound 122],96%,100%,100%,100%,100%,98%,–,–,–,–,–,–
Cc1ccc(-n2cnc(Cl)c2-c2c(F)ccc(F)c2F)cc1 [compound 123],48%,90%,99%,0%,94%,99%,–,–,–,–,–,–
Fc1cc(-n2cnc(Cl)c2-c2c(F)ccc(F)c2F)ccc1Cl [compound 124],90%,95%,97%,0%,98%,98%,–,–,–,–,–,–
Cc1nc(Cl)c(-c2c(F)cccc2F)n1Cc1cccc(Cl)c1 [compound 126],96%,99%,99%,69%,99%,97%,–,–,–,–,–,–
Cc1nc(Cl)c(-c2c(F)ccc(Cl)c2F)n1-c1ccc(Cl)cc1 [compound 127],95%,100%,100%,98%,100%,99%,–,–,–,–,–,–
Cc1nc(Cl)c(-c2c(F)cccc2F)n1Cc1ccc(Cl)cc1 [compound 128],93%,97%,96%,96%,100%,97%,–,–,–,–,–,–
Fc1ccc(-n2c(Cl)nc(Cl)c2-c2c(F)ccc(F)c2F)cc1 [compound 129],89%,74%,100%,0%,95%,99%,–,–,–,–,–,–
Cc1ccc(-n2c(Cl)nc(Cl)c2-c2c(F)ccc(F)c2F)cc1 [compound 130],85%,99%,100%,0%,96%,98%,–,–,–,–,–,–
Fc1cc(F)c(-n2c(Br)nc(Cl)c2-c2ccc(Cl)cc2)c(F)c1 [compound 131],–,–,–,–,–,–,85* %,0* %,99* %,0* %,48* %,90* %
COc1cc(F)c(-c2c(Cl)ncn2-c2ccc(Cl)cc2)c(Cl)c1 [compound 132],92%,74%,98%,0%,97%,94%,–,–,–,–,–,–
COc1cc(Cl)cc(F)c1-c1c(Cl)ncn1-c1ccc(Cl)cc1 [compound 133],0%,0%,0%,0%,0%,0%,–,–,–,–,–,–
Fc1ccc(-n2c(Br)nc(Cl)c2-c2c(F)ccc(F)c2F)cc1 [compound 134],93%,99%,100%,99%,100%,97%,–,–,–,–,–,–
Fc1cc(-n2c(Cl)nc(Cl)c2-c2c(F)ccc(F)c2F)ccc1Cl [compound 135],93%,100%,100%,0%,100%,99%,–,–,–,–,–,–
COc1cc(F)c(-c2c(Cl)ncn2-c2ccc(F)cc2)c(F)c1 [compound 136],96%,100%,100%,99%,100%,99%,–,–,–,–,–,–
Fc1ccc(-n2cnc(Cl)c2-c2c(F)cc(F)cc2F)cc1 [compound 137],98%,55%,100%,0%,97%,94%,–,–,–,–,–,–
